Assay results reported in ChEMBL document CHEMBL1165848, “Discovery of new cholesteryl ester transfer protein inhibitors via ligand-based pharmacophore modeling and QSAR analysis followed by synthetic exploration” (Eur J Med Chem, 2010).

target: T1, Cholesteryl ester transfer protein (Oryctolagus cuniculus) (UniProt P22687); assay: Inhibition of CETP in rabbit serum at 10 uM after 1 hr by fluorescent cholesteryl esters transfer assay; settings: not given
T1 sequence (whole entry): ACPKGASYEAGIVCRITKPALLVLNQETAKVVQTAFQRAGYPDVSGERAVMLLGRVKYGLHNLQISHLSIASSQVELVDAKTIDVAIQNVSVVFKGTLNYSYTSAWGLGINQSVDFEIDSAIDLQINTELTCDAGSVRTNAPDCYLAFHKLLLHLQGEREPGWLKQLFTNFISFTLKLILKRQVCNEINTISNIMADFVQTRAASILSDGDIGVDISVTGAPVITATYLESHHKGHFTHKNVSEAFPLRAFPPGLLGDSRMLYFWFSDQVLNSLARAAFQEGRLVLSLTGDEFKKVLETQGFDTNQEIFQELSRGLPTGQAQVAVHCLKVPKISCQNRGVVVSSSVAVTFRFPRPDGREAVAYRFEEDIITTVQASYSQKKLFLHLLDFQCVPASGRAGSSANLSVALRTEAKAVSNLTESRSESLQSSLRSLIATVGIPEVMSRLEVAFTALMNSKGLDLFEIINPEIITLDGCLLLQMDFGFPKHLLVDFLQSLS

Structure (SMILES)	inhibition
COc1ccc(C(=O)c2ccc(/N=C/c3ccc(C(F)(F)F)cc3)cc2)c(OC)c1	15.4%
COc1ccc(C(=O)c2cccc(/N=C/c3ccccc3)c2)cc1	12.6%
Cc1ccc(NC(=O)c2ccc(C(=O)Nc3ccc(C)c(Cl)c3)cc2)cc1Cl	0%
O=C(Nc1ccc(Br)cc1)N1CCN(C(=O)Nc2ccc(Br)cc2)CC1	0%
CC(C)(C(=O)O)c1ccc(C(O)CCCN2CCC(C(O)(c3ccccc3)c3ccccc3)CC2)cc1 (stereo not given)	0%
COc1cc(N)c(Cl)cc1C(=O)NC1CCN(CCCOc2ccc(F)cc2)CC1OC (stereo not given)	10.6%
CC(C)OC(=O)CCC/C=C\C[C@@H]1[C@@H](CC[C@@H](O)CCc2ccccc2)[C@H](O)C[C@@H]1O	11.4%
O=C(Nc1ccc(Cl)cc1C(F)(F)F)Oc1ccc(OCc2ccccc2)cc1	22.1%
C=CCc1cccc(/C=N/c2ccccc2NS(=O)(=O)c2ccc(C)cc2)c1O	22.6%
COc1ccc(C(=O)c2ccc(/N=C/c3cccc(C(F)(F)F)c3)cc2)c(OC)c1	14.9%
Clc1ccc2c(NCCCC/N=C/c3ccccc3)cccc2c1	0%
O=C(c1ccccc1)c1ccccc1NCC(O)COc1ccc(Cl)cc1 (stereo not given)	0%
O=S(=O)(Nc1ccc(CSc2ccc(Cl)cc2)cc1)c1ccccc1	82.5%
CCOc1ccc(/N=C/c2ccc(O)c(OC)c2)c(O)c1	25.5%
COc1ccc(/N=C/c2ccc(N(CCC#N)S(=O)(=O)c3ccccc3)cc2)cc1	0%
Cc1ccc(Nc2ccc(Nc3ccc(C)cc3)c3c2C(=O)c2cccc(O)c2C3=O)cc1	14%
CCSc1nc2ccc(/N=C\c3ccc(NS(=O)(=O)c4ccccc4)cc3O)cc2s1	0%
O=C(c1ccccc1)c1cccc(/N=C/c2ccc(C(F)(F)F)cc2)c1	26.3%
O=C(c1ccc(/N=C/c2cccc(C(F)(F)F)c2)cc1)c1ccc(-c2ccccc2)cc1	9.8%

Structure (SMILES)	inhibition
COc1ccc(C(=O)c2ccc(/N=C/c3ccc(C(C)(C)C)cc3)cc2)c(OC)c1	24.9%
COc1ccc(/C=N/c2cccc(C(=O)c3ccc(OC)cc3)c2)cc1	14.8%
N=c1[nH]c(=O)n(CCCOc2ccccc2)cc1-c1ccc(Cl)c(Cl)c1	0%
O=C(NC(=O)c1c(F)cccc1F)Nc1ccc(Cl)c(Oc2ncc(C(F)(F)F)cc2Cl)c1	0%
O=C(COc1cccc(Cl)c1)Nc1cccc(CN2C(=O)c3ccccc3C2=O)c1	0%
COc1ccc(CCN2CCC(Nc3nc4ccccc4n3Cc3ccc(F)cc3)CC2)cc1	20.8%
COc1cccc(/C=N/c2ccc(C(=O)c3ccc(OC)cc3OC)cc2)c1	23.7%
COc1ccc(Cl)cc1C(=O)NCCc1ccc(S(=O)(=O)NC(=O)NC2CCCCC2)cc1 [GLYBURIDE]	35%
CC(C)[C@H](Nc1ccc(C(F)(F)F)cc1Cl)C(=O)OC(C#N)c1cccc(Oc2ccccc2)c1 (stereo not given in full)	0%
OC(COc1c(Cl)cc(Cl)cc1Cl)COc1c(Cl)cc(Cl)cc1Cl	0%
COc1ccc(/C=N/c2ccc(C(=O)c3ccccc3)cc2)cc1	19.9%
CCCNCC(O)COc1ccccc1C(=O)CCc1ccccc1 (stereo not given)	0%
CC(C)OC(=O)CCC/C=C\C[C@@H]1[C@@H](/C=C/[C@@H](O)COc2cccc(C(F)(F)F)c2)[C@H](O)C[C@@H]1O	0%
O=C(Nc1ccc(Cl)c(Cl)c1)OCC(Cl)COc1ccc(Cl)cc1 (stereo not given)	0%
Cc1cc(Cl)c(Cl)cc1NC(=O)c1cccc(C(=O)Nc2cc(Cl)c(Cl)cc2C)c1	0%
CCCCCCCCOC(=O)c1ccc2c(c1)Nc1cc3ccccc3cc1N2	33%
CCN(CC)Cc1cc(Nc2ccnc3cc(Cl)ccc23)ccc1O	18.6%
COc1ccc(/C=N/c2ccc(C(=O)c3ccc(OC)cc3OC)cc2)cc1	19.5%
CCOc1cc(C2SCC(=O)N2c2ccc(Oc3ccc(Cl)cc3)c(Cl)c2)ccc1O (stereo not given)	6.7%

Structure (SMILES)	inhibition
Cc1ccc(Nc2ccc(Nc3ccc(C)cc3)c3c2C(=O)c2cc(Cl)c(Cl)cc2C3=O)cc1	20.8%
N=C(Nc1cccc2ccccc12)SCCCSC(=N)Nc1cccc2ccccc12	0%
C[C@]12CC[C@@H]3c4ccc(O)cc4C[C@@H](CCCCCCCCC[S+]([O-])CCCC(F)(F)C(F)(F)F)[C@H]3[C@@H]1CC[C@@H]2O (stereo not given in full)	5.7%
N=c1[nH]c(=O)n(CCCOc2cccc(Cl)c2)cc1-c1ccc(Cl)c(Cl)c1	0%
Cc1cc[n+](CC(=O)CCc2ccc(C(=O)C[n+]3ccc(C)cc3)cc2)cc1	6%
O=C(c1ccc(-c2ccccc2)cc1)c1cccc(/N=C/c2cccc(C(F)(F)F)c2)c1	33.8%
O=C(Nc1ccc2c(c1)CCC2)c1ccc(C(=O)Nc2ccc3c(c2)CCC3)cc1	0%
Cc1ccc(S(=O)(=O)Nc2cccc3c(NS(=O)(=O)c4ccc(C)cc4)cccc23)cc1	0%
O=C(CCCCC(=O)Nc1c(I)cc(I)c(C(=O)O)c1I)Nc1c(I)cc(I)c(C(=O)O)c1I	15.9%
C/C=C/c1ccc2oc(-c3ccc(OC4OC(C)C(O)C(O)C4O)cc3)c(C)c2c1 (stereo not given)	9%
CCCCOc1ccc(NC(=N)Nc2ccc(Cl)cc2)cc1	0%
OC1=C2Nc3ccc(Cl)cc3N=C2OC1c1c[nH]c2ccc(COc3ccccc3)cc12 (stereo not given)	9.1%
CCN(CC)CCC(=O)c1ccc(Nc2ccnc3cc(Cl)ccc23)cc1	20.3%
CCN(CC)c1ccc(Nc2ccc(CC(=O)c3ccccc3)cc2)cc1	52.5%
COc1ccc2nc3cc(Cl)ccc3c(Nc3ccc(C(O)CCn4cccc4)cc3)c2c1 (stereo not given)	13.4%
O=C(c1ccccc1)c1cc(Cl)ccc1NCC(O)COc1ccc(Cl)cc1 (stereo not given)	8.1%
CCCCOc1ccc2nccc(N/N=C/c3ccc(OC)c4ccccc34)c2c1	25.4%
Cc1cc2c(cc1C)NC1=C(O)C(c3c[nH]c4ccc(COc5ccccc5)cc34)OC1=N2 (stereo not given)	0%

target: T2, Cholesteryl ester transfer protein (Oryctolagus cuniculus, UniProt P22687); assay: Inhibition of CETP in rabbit serum after 1 hr by fluorescent cholesteryl esters transfer assay; settings: read-out: IC50
T2 sequence (P22687 whole entry): T1 sequence (whole entry)

Structure (SMILES)	IC50
O=S(=O)(Nc1ccc(CSc2ccc(Cl)cc2)cc1)c1ccccc1	1.9 µM
COc1ccc(Cl)cc1C(=O)NCCc1ccc(S(=O)(=O)NC(=O)NC2CCCCC2)cc1 [GLYBURIDE]	239 µM
CCCCCCCCOC(=O)c1ccc2c(c1)Nc1cc3ccccc3cc1N2	60.3 µM
CCN(CC)c1ccc(Nc2ccc(CC(=O)c3ccccc3)cc2)cc1	6.5 µM
